Reference: ChEMBL document CHEMBL3425421, “Chromone derivatives from a sponge-derived strain of the fungus Corynespora cassiicola” (J Nat Prod, 2015)
Active and inactive are the calls of the source.

How the values were obtained:
[1] = system: Bacillus subtilis; experiment: Antibacterial activity against Bacillus subtilis assessed as absence of growth after 18 hrs by conventional broth dilution assay; type: functional, organism-based
[2] = system: Staphylococcus; experiment: Antibacterial activity against Staphylococcus albus assessed as absence of growth after 18 hrs by conventional broth dilution assay; type: functional, organism-based
[3] = system: A549; experiment: Cytotoxicity against human A549 cells by MTT assay; type: functional, cell-based
[4] = system: Vibrio parahaemolyticus; experiment: Antibacterial activity against Vibrio parahaemolyticus assessed as absence of growth after 18 hrs by conventional broth dilution assay; type: functional, organism-based
[5] = system: HL-60; experiment: Cytotoxicity against human HL60 cells by MTT assay; type: functional, cell-based
[6] = molecular target: T1, DNA topoisomerase (Bos taurus) (UniProt A0JN73); experiment: Inhibition of calf thymus Topoisomerase 1 relaxation activity by plasmid relaxation assay
T1 sequence (whole entry): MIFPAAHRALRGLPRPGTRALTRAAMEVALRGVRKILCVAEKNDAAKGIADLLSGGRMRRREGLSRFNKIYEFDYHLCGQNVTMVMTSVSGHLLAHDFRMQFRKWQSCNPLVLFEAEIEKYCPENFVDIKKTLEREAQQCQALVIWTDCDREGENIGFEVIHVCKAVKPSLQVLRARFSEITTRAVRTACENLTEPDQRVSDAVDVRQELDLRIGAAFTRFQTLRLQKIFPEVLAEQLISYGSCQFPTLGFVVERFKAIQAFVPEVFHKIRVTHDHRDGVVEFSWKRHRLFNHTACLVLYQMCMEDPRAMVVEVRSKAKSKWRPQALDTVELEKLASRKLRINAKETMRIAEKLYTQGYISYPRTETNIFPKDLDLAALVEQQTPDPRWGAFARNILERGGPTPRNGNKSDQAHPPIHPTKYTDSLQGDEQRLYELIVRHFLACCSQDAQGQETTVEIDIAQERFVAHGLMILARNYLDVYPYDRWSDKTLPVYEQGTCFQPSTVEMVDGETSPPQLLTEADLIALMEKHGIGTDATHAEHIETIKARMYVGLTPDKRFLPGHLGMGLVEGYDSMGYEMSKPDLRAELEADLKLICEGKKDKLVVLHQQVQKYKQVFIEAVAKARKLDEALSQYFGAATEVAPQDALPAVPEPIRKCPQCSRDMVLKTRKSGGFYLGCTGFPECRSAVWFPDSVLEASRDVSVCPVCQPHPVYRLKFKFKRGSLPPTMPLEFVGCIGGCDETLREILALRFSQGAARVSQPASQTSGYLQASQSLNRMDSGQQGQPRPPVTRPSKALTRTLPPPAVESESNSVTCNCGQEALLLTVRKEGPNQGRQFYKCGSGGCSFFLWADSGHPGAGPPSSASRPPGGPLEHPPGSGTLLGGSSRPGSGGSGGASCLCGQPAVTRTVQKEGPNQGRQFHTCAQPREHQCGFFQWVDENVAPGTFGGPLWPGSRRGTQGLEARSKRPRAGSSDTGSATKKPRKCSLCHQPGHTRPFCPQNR

[7] = molecular target: Acetylcholinesterase (Electrophorus electricus) (UniProt O42275); experiment: Inhibition of electric eel AChE using acetylthiocholine iodide as substrate by Ellman's method
Acetylcholinesterase (Electrophorus electricus), sequence (O42275 24-633 limits assumed): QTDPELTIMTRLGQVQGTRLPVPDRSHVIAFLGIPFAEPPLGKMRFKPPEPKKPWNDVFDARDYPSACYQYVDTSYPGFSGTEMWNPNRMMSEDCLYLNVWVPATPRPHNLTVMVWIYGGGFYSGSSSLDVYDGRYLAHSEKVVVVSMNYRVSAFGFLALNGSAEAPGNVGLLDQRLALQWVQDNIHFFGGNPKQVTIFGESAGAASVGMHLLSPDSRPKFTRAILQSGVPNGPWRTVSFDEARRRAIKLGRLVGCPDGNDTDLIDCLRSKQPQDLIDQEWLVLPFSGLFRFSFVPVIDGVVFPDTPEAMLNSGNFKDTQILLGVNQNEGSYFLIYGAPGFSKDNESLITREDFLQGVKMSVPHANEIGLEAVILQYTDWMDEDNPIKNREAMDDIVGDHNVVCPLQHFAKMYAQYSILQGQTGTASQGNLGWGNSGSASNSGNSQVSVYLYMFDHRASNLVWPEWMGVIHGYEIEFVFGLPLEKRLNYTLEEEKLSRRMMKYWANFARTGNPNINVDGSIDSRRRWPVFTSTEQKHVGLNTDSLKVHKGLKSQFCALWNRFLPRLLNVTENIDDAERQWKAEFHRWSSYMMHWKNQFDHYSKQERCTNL

[8] = system: Bacillus cereus; experiment: Antibacterial activity against Bacillus cereus assessed as absence of growth after 18 hrs by conventional broth dilution assay; type: functional, organism-based
[9] = system: K562; experiment: Cytotoxicity against human K562 cells by MTT assay; type: functional, cell-based
[10] = system: Amphibalanus amphitrite; experiment: Antifouling activity against Balanus amphitrite Darwin; type: functional, organism-based
[11] = system: Pseudomonas putida; experiment: Antibacterial activity against Pseudomonas putida assessed as absence of growth after 18 hrs by conventional broth dilution assay; type: functional, organism-based
[12] = system: HeLa; experiment: Cytotoxicity against human HeLa cells by MTT assay; type: functional, cell-based
[13] = system: Tetragenococcus halophilus; experiment: Antibacterial activity against Tetragenococcus halophilus assessed as absence of growth after 18 hrs by conventional broth dilution assay; type: functional
[14] = system: Staphylococcus aureus; experiment: Antibacterial activity against Staphylococcus aureus assessed as absence of growth after 18 hrs by conventional broth dilution assay; type: functional, organism-based

Measured: inhibition

CC(=O)C[C@H]1CC(=O)c2c(CC(=O)O)cc(O)cc2O1
inactive: all assays above

C[C@H](O)C[C@@H]1CC(=O)c2c(CC(=O)O)cc(O)cc2O1
inactive: all assays above

CCOC(=O)Cc1cc(O)cc2oc(C)cc(=O)c12
inactive: all assays above

CC(C)COC(=O)Cc1cc(O)cc2c1C(=O)C[C@H](C[C@H](C)O)O2
inactive: all assays above

CCOC(=O)Cc1cc(O)cc2c1C(=O)C[C@@H](C[C@H](C)O)O2
inactive: all assays above

COc1c(O)cc(CC(=O)O)c2c1O[C@@H](C[C@H](C)O)CC2=O
inactive: all assays above

Cc1cc(=O)c2c(CC(=O)OCC(C)C)cc(O)cc2o1
inactive: all assays above

CCOC(=O)Cc1cc(O)cc2oc(/C=C/C[C@H](C)O)cc(=O)c12
inactive: all assays above

CC(C)COC(=O)Cc1cc(O)cc2c1C(=O)C[C@@H](C[C@H](C)O)O2
inactive: all assays above

CCOC(=O)Cc1cc(O)cc2c1C(=O)C[C@H](C[C@H](C)O)O2
inactive: all assays above

C[C@H](O)C[C@H]1CC(=O)c2c(CC(=O)O)cc(O)cc2O1
inactive: all assays above

COc1c(O)cc(CC(=O)O)c2c1O[C@H](C[C@H](C)O)CC2=O
inactive: all assays above
